Reference: patent US7582678B2, “Use of branched-chain fatty acids and derivatives thereof for the treatment of pain” (D-PHARM Limited, priority 1998, dated 2009)
Marks after values point to notes of the source that are not given here.

Experiments:
Male CD-1 mice = test: Tail flick assay (radiated heat, acute pain) in mice; conditions: for size of analgesic effect, ranking among tested compounds: tail flick, Table 1;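 for all read-outs here: infrared heat aimed at the tail of restrained mice, time until tail flick recorded as mean of 2-3 readings, 4-8 animals per group, compared with vehicle-treated animals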
Method: The analgesic effect of branched-chain fatty acids (BFAs) and their DP-BFAs derivatives was tested by using the tail flick assay in mice.
This model uses radiated infrared (IR) heat source that is directed to the tail of a restrained mouse. The threshold of tolerance for heat is indicated by a time-meter, which is stopped instantaneously when the tail flicks. This time is defined as ‘withdrawal latency’.
Male CD-1 mice weighing around 25-30 grams (4-8 animals per each dose of the tested compound) were used. The animals were put in clear plastic cages above an IR source (7371-Plantar™ Analgesia Instrument, UGO Basile), where the IR generator is placed directly underneath the tail of the mouse and the light beam is focused on the proximal third of the tail.
The withdrawal latency, namely the time interval from the starting of the infrared radiation until the animal feels pain and flicks its tail is determined. The initial withdrawal latency for each animal was measured at t=0 and was determined as its baseline threshold.
In order to determine the analgesic effect of a tested drug, the drug (10 to 200 mg/kg body weight) was administered to mice either orally (p.o.) or by intraperitoneal (i.p.) or subcutaneous (s.c.) injection. Withdrawal latency was determined at different time points post-administration of the drug as indicated. Each reading was performed 2-3 times and the mean-value was calculated. […] The withdrawal latency at each time point post injection is the average of 4-8 animals per group. […] Paired T-test was used to assess significance in comparison to the baseline value (t=0). Morphine was used as a positive control (2 animals per dose).

[1] = I.P., 100 mg/kg, 15 min post-injection
[2] = I.P., 100 mg/kg, 45 min post-injection
[3] = I.P., 100 mg/kg, 75 min post-injection
[4] = I.P., 100 mg/kg, 105 min post-injection
[5] = I.P., 100 mg/kg, 135 min post-injection
[6] = I.P., 200 mg/kg, 15 min post-injection
[7] = I.P., 200 mg/kg, 45 min post-injection
[8] = I.P., 200 mg/kg, 105 min post-injection
[9] = I.P., 50 mg/kg, 15 min post-injection
[10] = I.P., 50 mg/kg, 45 min post-injection
[11] = I.P., 50 mg/kg, 75 min post-injection
[12] = I.P., 50 mg/kg, 105 min post-injection
[13] = I.P., 50 mg/kg, 135 min post-injection
[14] = I.P., 50 mg/kg, 285 min post-injection
[15] = I.P., 50 mg/kg, 345 min post-injection
[16] = I.P., 100 mg/kg, 285 min post-injection
[17] = I.P., 100 mg/kg, 345 min post-injection
[18] = I.P., 200 mg/kg, 75 min post-injection
[19] = I.P., 200 mg/kg, 135 min post-injection

Row | Structure (SMILES) | Withdrawal latency (% of vehicle) (Male CD-1 mice; [1]) | Withdrawal latency (% of vehicle) (Male CD-1 mice; [2]) | Withdrawal latency (% of vehicle) (Male CD-1 mice; [3]) | Withdrawal latency (% of vehicle) (Male CD-1 mice; [4]) | Withdrawal latency (% of vehicle) (Male CD-1 mice; [5]) | Withdrawal latency (% of vehicle) (Male CD-1 mice; [6]) | Withdrawal latency (% of vehicle) (Male CD-1 mice; [7]) | Withdrawal latency (% of vehicle) (Male CD-1 mice; [8]) | Withdrawal latency (% of vehicle) (Male CD-1 mice; [9]) | Withdrawal latency (% of vehicle) (Male CD-1 mice; [10]) | Withdrawal latency (% of vehicle) (Male CD-1 mice; [11]) | Withdrawal latency (% of vehicle) (Male CD-1 mice; [12]) | Withdrawal latency (% of vehicle) (Male CD-1 mice; [13]) | also measured
1 | CCCCCCCCCCC(CCC)C(=O)O (stereo not shown) [M(3,10), 2-Propyldodecanoic acid] | 142% of vehicle | 155% of vehicle | 131% of vehicle | 156% of vehicle | 123% of vehicle | 186% of vehicle | 210% of vehicle | 183% of vehicle | – | – | – | – | – | size of analgesic effect, ranking among tested compounds (Male CD-1 mice): largest analgesic effects
2 | CCCCCCCC(CCC)C(=O)O (stereo not shown) [M(3,7), 2-Propylnonanoic acid] | – | – | – | – | – | – | – | – | – | – | – | – | – | Withdrawal latency (% of vehicle) (Male CD-1 mice; I.P., 150 mg/kg, 15 min post-injection): 157% of vehicle; Withdrawal latency (% of vehicle) (Male CD-1 mice; I.P., 150 mg/kg, 45 min post-injection): 137% of vehicle; Withdrawal latency (% of vehicle) (Male CD-1 mice; I.P., 150 mg/kg, 75 min post-injection): 106% of vehicle; Withdrawal latency (% of vehicle) (Male CD-1 mice; I.P., 150 mg/kg, 105 min post-injection): 131% of vehicle
3 | CCCCCC(CCCCC)C(=O)O [M(5,5)—Na, 2-Pentylheptanoic acid] | 137% of vehicle | 164% of vehicle | 164% of vehicle | 193% of vehicle | – | – | – | – | 115% of vehicle | 124% of vehicle | 117% of vehicle | 134% of vehicle | – | –
4 | CCCCCCCCCCCCCCCCCCC(CCC)C(=O)O (stereo not shown) [M(3,18), 2-Propyleicosanoic acid] | – | – | – | – | – | – | – | – | – | – | – | – | – | melting point: 55.6 to 57.4 °C
5 | CCCCCCCCCCCCCCCCCC(=O)OC[C@H](COP(=O)([O-])OCC[N+](C)(C)C)OC(=O)C(CCC)CCCCCCC (stereo partly shown) [DP-M(3,7), 1-O-stearoyl-2-propylnonayl-sn-glycero-3-phosphocholine] | 127% of vehicle | 156% of vehicle | 124% of vehicle | 114% of vehicle | 126% of vehicle | – | – | – | 132% of vehicle | 123% of vehicle | 119% of vehicle | 102% of vehicle | 112% of vehicle | Withdrawal latency (% of vehicle) (Male CD-1 mice; [14]): 119% of vehicle; Withdrawal latency (% of vehicle) (Male CD-1 mice; [15]): 114% of vehicle; Withdrawal latency (% of vehicle) (Male CD-1 mice; [16]): 127% of vehicle; Withdrawal latency (% of vehicle) (Male CD-1 mice; [17]): 125% of vehicle
6 | CN1CC[C@]23c4c5ccc(O)c4O[C@H]2[C@@H](O)C=C[C@H]3[C@H]1C5 [Morphine, reference compound] | – | – | – | – | – | – | – | – | – | – | – | – | – | Withdrawal latency (% of vehicle) (Male CD-1 mice; I.P., 1 mg/kg, 15 min post-injection): 97% of vehicle; Withdrawal latency (% of vehicle) (Male CD-1 mice; I.P., 1 mg/kg, 45 min post-injection): 136% of vehicle; Withdrawal latency (% of vehicle) (Male CD-1 mice; I.P., 1 mg/kg, 75 min post-injection): 207% of vehicle; Withdrawal latency (% of vehicle) (Male CD-1 mice; I.P., 1 mg/kg, 105 min post-injection): 179% of vehicle; Withdrawal latency (% of vehicle) (Male CD-1 mice; I.P., 1 mg/kg, 255 min post-injection): 142%** % of vehicle; Withdrawal latency (% of vehicle) (Male CD-1 mice; I.P., 10 mg/kg, 15 min post-injection): 139% of vehicle; Withdrawal latency (% of vehicle) (Male CD-1 mice; I.P., 10 mg/kg, 45 min post-injection): 171% of vehicle; Withdrawal latency (% of vehicle) (Male CD-1 mice; I.P., 10 mg/kg, 75 min post-injection): 284% of vehicle; Withdrawal latency (% of vehicle) (Male CD-1 mice; I.P., 10 mg/kg, 105 min post-injection): 238% of vehicle; Withdrawal latency (% of vehicle) (Male CD-1 mice; I.P., 10 mg/kg, 255 min post-injection): 151%** % of vehicle
7 | CCCCCC(CCCCC)C(=O)O [M(5,5), 2-Pentylheptanoic acid] | – | – | – | – | – | 161% of vehicle | 135% of vehicle | 158% of vehicle | – | – | – | – | – | Withdrawal latency (% of vehicle) (Male CD-1 mice; [18]): 145% of vehicle; size of analgesic effect, ranking among tested compounds (Male CD-1 mice): largest analgesic effects
8 | CCCCCCCCCCCCCCCCCC(=O)OC[C@H](COP(=O)([O-])OCC[N+](C)(C)C)OC(=O)C(CCC)CCCCCCCCCC (stereo partly shown) [DP-M(3,10), 1-O-stearoyl-2-propyldodecanoyl-sn-glycero-3-phosphocholine] | – | – | – | – | – | – | – | – | 123% of vehicle | 119% of vehicle | 113% of vehicle | 123% of vehicle | 123% of vehicle | Withdrawal latency (% of vehicle) (Male CD-1 mice; [14]): 129% of vehicle; Withdrawal latency (% of vehicle) (Male CD-1 mice; [15]): 107% of vehicle
9 | CCCCCCCCCCC(CCC)C(=O)O (stereo not shown) [M(3,10)—Na, 2-Propyldodecanoic acid] | 181% of vehicle | 153% of vehicle | 121% of vehicle | 143% of vehicle | 148% of vehicle | 158% of vehicle | 220% of vehicle | 141% of vehicle | 151% of vehicle | 138% of vehicle | 128% of vehicle | 123% of vehicle | 102% of vehicle | Withdrawal latency (% of vehicle) (Male CD-1 mice; [18]): 216% of vehicle; Withdrawal latency (% of vehicle) (Male CD-1 mice; [19]): 175% of vehicle
10 | CCCCCCCC(CCCCCCC)OP(=O)(O)O [(7,7)-PO4, 8-Pentadecanyl Phosphate] | – | – | – | – | – | – | – | – | – | – | – | – | – | Withdrawal latency (% of vehicle) (Male CD-1 mice; P.O., 200 mg/kg, 45 min post-administration): 93% of vehicle; Withdrawal latency (% of vehicle) (Male CD-1 mice; P.O., 200 mg/kg, 75 min post-administration): 94% of vehicle; Withdrawal latency (% of vehicle) (Male CD-1 mice; P.O., 200 mg/kg, 105 min post-administration): 124% of vehicle; Withdrawal latency (% of vehicle) (Male CD-1 mice; P.O., 200 mg/kg, 135 min post-administration): 133% of vehicle; Withdrawal latency (% of vehicle) (Male CD-1 mice; P.O., 200 mg/kg, 285 min post-administration): 162% of vehicle; Withdrawal latency (% of vehicle) (Male CD-1 mice; P.O., 200 mg/kg, 345 min post-administration): 129% of vehicle
11 | CCCCCCCCCCCCCCCCCC(=O)OC[C@H](COP(=O)([O-])OCC[N+](C)(C)C)OC(=O)C(CCCCC)CCCCC [DP-M(5,5), 1-O-stearoyl-2-pentylheptonayl-sn-glycero-3-phosphocholine] | 148% of vehicle | 143% of vehicle | 148% of vehicle | 162% of vehicle | 171% of vehicle | – | – | – | 113% of vehicle | 107% of vehicle | 118% of vehicle | 142% of vehicle | 152% of vehicle | Withdrawal latency (% of vehicle) (Male CD-1 mice; [14]): 121% of vehicle; Withdrawal latency (% of vehicle) (Male CD-1 mice; [15]): 124% of vehicle; Withdrawal latency (% of vehicle) (Male CD-1 mice; [16]): 155% of vehicle; Withdrawal latency (% of vehicle) (Male CD-1 mice; [17]): 124% of vehicle; dose dependence of analgesic effect (Male CD-1 mice; i.p. 25, 50, 100 mg/kg (FIG. 1)): dose dependent; size of analgesic effect, ranking among tested compounds (Male CD-1 mice): largest analgesic effects
12 | CCCCCCCC(CCCCCCC)C(=O)O [M(7,7), 2-Heptylnonanoic acid] | – | – | – | – | – | 93% of vehicle | 124% of vehicle | 149% of vehicle | – | – | – | – | – | Withdrawal latency (% of vehicle) (Male CD-1 mice; [18]): 117% of vehicle; Withdrawal latency (% of vehicle) (Male CD-1 mice; [19]): 124% of vehicle
